# Source: US20080188445A1, “TETRACYCLINE COMPOSITIONS FOR TOPICAL ADMINISTRATION” (WARNER CHILCOTT COMPANY INC., priority 2007, published 2008)
# Counter-ions that a name gives are not always drawn.
# Experiment: Permeation through a silicone membrane, pH effect (side-by-side permeation apparatus)
# Assay type: in vitro ADME
# Conditions: 32° C.
# Source text: A further study investigated the permeation of minocycline from a liquid formulation comprising 0.47% (w/w) minocycline HCl dissolved in water through a silicone membrane as function of the pH. The diffusion of tetracycline from commercially available Topicycline® (0.2% w/w tetracycline HCl) across a silicone membrane was also compared under equivalent conditions. The permeation apparatus used (FIG. 1) was as follows. The apparatus consisted of two water-jacketed compartments 1 and 2, separated by a standard silicone membrane 3 (SMEM001 002, Esco Rubber, Barloworld Scientific Ltd, UK), which were clamped together. Each water-jacketed compartment 1 and 2 had respective water inlets 4 and water outlets 5 on the respective outer compartments 6, said outer compartments containing water. Inner compartment 7 for containing sample and inner compartment 8 for containing dissolution medium are also shown. The liquid formulation (or the Topicycline®) was immediately introduced into the inner compartment 7 via port 10. A pre-heated 0.9% saline solution (32° C.) was introduced via the sampling port 9 in the inner compartment 8.
structure (smiles),measurement,setting,value
CN(C)c1ccc(O)c2c1C[C@H]1C[C@H]3[C@H](N(C)C)C(O)=C(C(N)=O)C(=O)[C@@]3(O)C(O)=C1C2=O [Minocycline HCl],Amount of Tetracycline or Minocycline (μg) detected after 6 hours,"pH 5.0, receiver 0.9% saline",0.17 µg
same,Amount of Tetracycline or Minocycline (μg) detected after 6 hours,"pH 6.2, receiver 0.9% saline",0.55 µg
same,Amount of Tetracycline or Minocycline (μg) detected after 6 hours,"pH 7.0, receiver 0.9% saline",0.31 µg
